Values of other authors as cited in patent US6901278B1, “Methods for reducing the risk of breast cancer in and improving the health of women” (priority 2002, dated 2005).

Details: following first-pass hepatic metabolism

For `C[C@]12CC[C@@H]3c4ccc(O)cc4CC[C@H]3[C@@H]1CC[C@@H]2O` [Estradiol, 17β-estradiol], the “bioavailable fraction of oral estradiol” value is given as 5%.
